Biological target: T1, acetylcholinesterase (AChE)
T1 construct: AChE used with commercial BioVision colorimetric AChE assay kit
Assay: colorimetric AChE kit (choline oxidase/probe), […] nm
Format: biochemical
Conditions: 37°C, 20 min, AChE substrate 5 mM

| Compound | IC50 (also printed as 10.42 μg/ml) | IC50 (also printed as 17.92 μg/ml) |
| --- | --- | --- |
| O=C(O)c1ccc(O)c(O)c1 [Protocatechuic acid] | 67.6 µM |  |
| CCCCC/C=C/C(=O)CCc1ccc(O)c(OC)c1 [6-Shogaol] |  | 64.8 µM |

Reference: article PMC6463685, “WS-5 Extract of Curcuma longa, Chaenomeles sinensis, and Zingiber officinale Contains Anti-AChE Compounds and Improves β-Amyloid-Induced Memory Impairment in Mice” (Evidence-based Complementary and Alternative Medicine : eCAM, 2019)
